Measurements reported in ChEMBL document CHEMBL1122789, “Synthesis and biological activity of structural analogues of the anticancer benzophenanthridine alkaloid nitidine chloride” (1984).

Columns and labels:
[1] = test system: P388; experiment: Evaluated for anticancer activity in survival tumor system P388 lymphocytic leukemia at a dose of 50 mg/kg;Number of Tested survived/number of control survived (5/5); conditions: Mus musculus
[2] = Evaluated for anticancer activity in tumor inhibition system CD8F1 mammary tumor at dose 125 mg/kg; type: functional, Mus musculus
[3] = Evaluated for anticancer activity in tumor inhibition system CD8F1 mammary tumors at a dose of 500 mg/kg; Number of Tested survived/number of control survived (0/10); type: functional, Mus musculus

COc1cc2c[n+](C)c3c(c2cc1OC)Cc1cc2c(cc1-3)OCO2.[Cl-]
Survival [1]: 5
T/C [2]: 105%
Survival [3]: 0
